{"source": "patent US20220062240A1", "about": "“METHODS OF TREATING CANCER USING A CLK INHIBITOR” (BioSplice Therapeutics, Inc., priority 2018, published 2022)", "key": {"CLK2": {"biological_target": "T1, CLK2 (Homo sapiens, UniProt P49760)", "T1 construct": "purchased Thermo Fisher (Life Technologies), Z'-LYTE Kinase Assay Kits", "assay": "CLK2 kinase activity assay (Z-lyte, Ser/Thr 6 peptide)", "type": "biochemical", "conditions": "recombinant CLK2 kinase, ATP 60 μM; read-out: EC50", "method": "All reactions were performed in duplicate."}, "BT-549": {"test_system": "BT-549", "assay": "CellTiter-Glo Viability Assay, breast cancer", "type": "cell-based", "conditions": "Homo sapiens, 96 h; BT-549, breast cancer, four days; read-out: EC50"}, "CAMA1": {"test_system": "CAMA1", "assay": "CellTiter-Glo Viability Assay, breast cancer", "type": "cell-based", "conditions": "Homo sapiens, CAMA-1, 96 h; CAMA1, breast cancer, four days; read-out: EC50"}, "DU4475": {"test_system": "DU4475", "assay": "CellTiter-Glo Viability Assay, breast cancer", "type": "cell-based", "conditions": "Homo sapiens, DU-4475, 96 h; DU4475, breast cancer, four days; read-out: EC50"}, "HCC1599": {"test_system": "HCC1599", "assay": "CellTiter-Glo Viability Assay, breast cancer", "type": "cell-based", "conditions": "Homo sapiens, 96 h; HCC1599, breast cancer, four days; read-out: EC50"}, "MCF7": {"test_system": "MCF7", "assay": "CellTiter-Glo Viability Assay, breast cancer", "type": "cell-based", "conditions": "Homo sapiens, 96 h; MCF7, breast cancer, four days; read-out: EC50"}, "MDA-MB-231-Luc": {"test_system": "MDA-MB-231-Luc", "assay": "CellTiter-Glo Viability Assay, breast cancer", "type": "cell-based", "conditions": "Homo sapiens, 96 h; MDA-MB-231-Luc, breast cancer, four days; read-out: EC50"}, "T47D": {"test_system": "T47D", "assay": "CellTiter-Glo Viability Assay, breast cancer", "type": "cell-based", "conditions": "Homo sapiens, 96 h, breast cancer, four days, read-out: EC50"}, "ZR-75-1": {"test_system": "ZR-75-1", "assay": "CellTiter-Glo Viability Assay, breast cancer", "type": "cell-based", "conditions": "Homo sapiens, 96 h; ZR-75-1, breast cancer, four days; read-out: EC50"}, "all 50 cell lines": {"test_system": "all 50 cell lines", "assay": "CellTiter-Glo Viability Assay, average across all cell lines", "type": "cell-based", "conditions": "Homo sapiens; across all 50 cell lines; read-out: average EC50 for inhibition of cancer cell proliferation", "outline": "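Proliferation of a multi-tissue human cancer line panel is assessed over four days at 37° C and 5% CO2, seeding 300-3,000 cells/well. Viability is quantified by CellTiter-Glo luminescence, and EC50 values are calculated.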"}, "[1]": {"test_system": "colorectal cancer (6 cell lines)", "assay": "CellTiter-Glo Viability Assay, colorectal cancer", "type": "cell-based", "conditions": "Homo sapiens, inhibition of cancer cell proliferation"}, "[2]": {"test_system": "haematopoietic & lymphoid tumors (13 cell lines)", "assay": "CellTiter-Glo Viability Assay, haematopoietic & lymphoid tumors", "type": "cell-based", "conditions": "Homo sapiens, inhibition of cancer cell proliferation"}, "[3]": {"test_system": "liver cancer (3 cell lines)", "assay": "CellTiter-Glo Viability Assay, liver cancer", "type": "cell-based", "conditions": "Homo sapiens, inhibition of cancer cell proliferation"}, "[4]": {"test_system": "lung cancer (4 cell lines)", "assay": "CellTiter-Glo Viability Assay, lung cancer", "type": "cell-based", "conditions": "Homo sapiens, inhibition of cancer cell proliferation"}, "[5]": {"test_system": "ovarian cancer (4 cell lines)", "assay": "CellTiter-Glo Viability Assay, ovarian cancer", "type": "cell-based", "conditions": "Homo sapiens, inhibition of cancer cell proliferation"}, "[6]": {"test_system": "pancreatic cancer (8 cell lines)", "assay": "CellTiter-Glo Viability Assay, pancreatic cancer", "type": "cell-based", "conditions": "Homo sapiens, inhibition of cancer cell proliferation"}, "[7]": {"test_system": "prostate cancer (5 cell lines)", "assay": "CellTiter-Glo Viability Assay, prostate cancer", "type": "cell-based", "conditions": "Homo sapiens"}, "CLK3": {"biological_target": "CLK3 (Homo sapiens, UniProt P49761)", "sequence (P49761 whole entry)": "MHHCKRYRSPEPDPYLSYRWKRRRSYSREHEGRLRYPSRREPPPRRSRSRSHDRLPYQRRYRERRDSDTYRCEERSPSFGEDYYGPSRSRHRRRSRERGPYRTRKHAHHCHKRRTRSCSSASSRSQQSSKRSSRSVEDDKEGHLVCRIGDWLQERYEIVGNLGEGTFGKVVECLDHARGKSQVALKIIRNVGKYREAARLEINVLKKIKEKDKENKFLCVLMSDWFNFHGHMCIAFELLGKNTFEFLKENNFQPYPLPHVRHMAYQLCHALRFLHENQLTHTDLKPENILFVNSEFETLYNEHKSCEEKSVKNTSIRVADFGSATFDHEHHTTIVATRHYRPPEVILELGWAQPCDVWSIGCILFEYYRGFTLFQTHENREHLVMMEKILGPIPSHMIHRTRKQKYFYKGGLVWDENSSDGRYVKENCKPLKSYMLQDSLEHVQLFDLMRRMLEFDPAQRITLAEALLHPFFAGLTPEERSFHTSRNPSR", "assay": "CLK3 kinase activity assay (Z-lyte, Ser/Thr 18 peptide)"}}, "note": "Where two headings read alike, the source gives them in different places."}
{"smiles": "CN1CCN(c2ccc(NC(=O)c3n[nH]c4ccc(-c5cncc(NC(=O)C6CC6)c5)cc34)cn2)CC1", "note": "[Compound 60]", "values": [{"measurement": "EC50", "setting": "CLK2", "value": 0.9, "unit": "nM"}, {"measurement": "EC50", "setting": "BT-549", "value": 734, "unit": "nM"}, {"measurement": "EC50", "setting": "CAMA1", "value": 252, "unit": "nM"}, {"measurement": "EC50", "setting": "DU4475", "value": 169, "unit": "nM"}, {"measurement": "EC50", "setting": "HCC1599", "value": 57, "unit": "nM"}, {"measurement": "EC50", "setting": "MCF7", "value": 1600, "unit": "nM"}, {"measurement": "EC50", "setting": "MDA-MB-231-Luc", "value": 557, "unit": "nM"}, {"measurement": "EC50", "setting": "T47D", "value": 296, "unit": "nM"}, {"measurement": "EC50", "setting": "ZR-75-1", "value": 738, "unit": "nM"}, {"measurement": "EC50", "setting": "all 50 cell lines", "value": 1070, "unit": "nM"}, {"measurement": "EC50", "setting": "[1]; HCT-116, HCT116 cell line, read-out: Colorectal cancer, EC50 (μM) HCT116", "value": 0.639, "unit": "µM"}, {"measurement": "EC50", "setting": "[1]; HT-29, HT29 cell line, read-out: Colorectal cancer, EC50 (μM) HT29", "value": 2.52, "unit": "µM"}, {"measurement": "EC50", "setting": "[1]; SW-620, SW620 cell line, read-out: Colorectal cancer, EC50 (μM) SW620", "value": 0.455, "unit": "µM"}, {"measurement": "EC50", "setting": "[1]; DLD-1 cell line, read-out: Colorectal cancer, EC50 (μM) DLD-1", "value": 1.76, "unit": "µM"}, {"measurement": "EC50", "setting": "[1]; SW48 cell line, read-out: Colorectal cancer, EC50 (μM) SW48", "value": 0.174, "unit": "µM"}, {"measurement": "EC50", "setting": "[1]; SW480 cell line, read-out: Colorectal cancer, EC50 (μM) SW480", "value": 0.486, "unit": "µM"}, {"measurement": "EC50", "setting": "[2]; DND41, DND-41 cell line, read-out: Haematopoietic & Lymphoid tumors, EC50 (μM) DND-41", "value": 0.154, "unit": "µM"}, {"measurement": "EC50", "setting": "[2]; MV4-11, MV-4-11 cell line, read-out: Haematopoietic & Lymphoid tumors, EC50 (μM) MV-4-11", "value": 0.088, "unit": "µM"}, {"measurement": "EC50", "setting": "[2]; Rec1, REC-1 cell line, read-out: Haematopoietic & Lymphoid tumors, EC50 (μM) REC-1", "value": 1.45, "unit": "µM"}, {"measurement": "EC50", "setting": "[2]; SU-DHL-4, SUDHL4 cell line, read-out: Haematopoietic & Lymphoid tumors, EC50 (μM) SUDHL4", "value": 0.641, "unit": "µM"}, {"measurement": "EC50", "setting": "[2]; HL-60 cell line, read-out: Haematopoietic & Lymphoid tumors, EC50 (μM) HL-60", "value": 3.24, "unit": "µM"}, {"measurement": "EC50", "setting": "[2]; JM1 cell line, read-out: Haematopoietic & Lymphoid tumors, EC50 (μM) JM1", "value": 0.121, "unit": "µM"}, {"measurement": "EC50", "setting": "[2]; JURKAT, Clone E6-1 cell line, read-out: Haematopoietic & Lymphoid tumors, EC50 (μM) JURKAT, Clone E6-1", "value": 1.42, "unit": "µM"}, {"measurement": "EC50", "setting": "[2]; JeKo-1 cell line, read-out: Haematopoietic & Lymphoid tumors, EC50 (μM) JeKo-1", "value": 0.039, "unit": "µM"}, {"measurement": "EC50", "setting": "[2]; KASUMI-1 cell line, read-out: Haematopoietic & Lymphoid tumors, EC50 (μM) KASUMI-1", "value": 0.685, "unit": "µM"}, {"measurement": "EC50", "setting": "[2]; Loucy cell line, read-out: Haematopoietic & Lymphoid tumors, EC50 (μM) Loucy", "value": 0.207, "unit": "µM"}, {"measurement": "EC50", "setting": "[2]; MOLT-4 cell line, read-out: Haematopoietic & Lymphoid tumors, EC50 (μM) MOLT-4", "value": 0.503, "unit": "µM"}, {"measurement": "EC50", "setting": "[2]; TF-1 cell line, read-out: Haematopoietic & Lymphoid tumors, EC50 (μM) TF-1", "value": 3.05, "unit": "µM"}, {"measurement": "EC50", "setting": "[2]; TOLEDO cell line, read-out: Haematopoietic & Lymphoid tumors, EC50 (μM) TOLEDO", "value": 0.219, "unit": "µM"}, {"measurement": "EC50", "setting": "[3]; SNU-398, SNU398 cell line, read-out: Liver cancer, EC50 SNU398", "value": 120, "unit": "nM"}, {"measurement": "EC50", "setting": "[3]; HEPG2 cell line, read-out: Liver cancer, EC50 HEPG2", "value": 452, "unit": "nM"}, {"measurement": "EC50", "setting": "[3]; PLC/PRF/5 cell line, read-out: Liver cancer, EC50 PLC/PRF/5", "value": 2030, "unit": "nM"}, {"measurement": "EC50", "setting": "[4]; A-427, A427 cell line, read-out: Lung cancer, EC50 (μM) A427", "value": 0.35, "unit": "µM"}, {"measurement": "EC50", "setting": "[4]; HCC78, HCC-78 cell line, read-out: Lung cancer, EC50 (μM) HCC-78", "value": 1.69, "unit": "µM"}, {"measurement": "EC50", "setting": "[4]; NCI-H460 cell line, read-out: Lung cancer, EC50 (μM) NCI-H460", "value": 2.65, "unit": "µM"}, {"measurement": "EC50", "setting": "[4]; NCI-H522 cell line, read-out: Lung cancer, EC50 (μM) NCI-H522", "value": 0.191, "unit": "µM"}, {"measurement": "EC50", "setting": "[5]; PA-1, PA1 cell line, read-out: Ovarian cancer, EC50 (μM) PA1", "value": 0.405, "unit": "µM"}, {"measurement": "EC50", "setting": "[5]; TOV112D, TOV-112D cell line, read-out: Ovarian cancer, EC50 (μM) TOV-112D", "value": 0.475, "unit": "µM"}, {"measurement": "EC50", "setting": "[5]; OV-90 cell line, read-out: Ovarian cancer, EC50 (μM) OV-90", "value": 1.08, "unit": "µM"}, {"measurement": "EC50", "setting": "[5]; OVCAR-3 cell line, read-out: Ovarian cancer, EC50 (μM) OVCAR-3", "value": 0.116, "unit": "µM"}, {"measurement": "EC50", "setting": "[6]; BXPC-3, BxPC3 cell line, read-out: Pancreatic cancer, EC50 BxPC3", "value": 2680, "unit": "nM"}, {"measurement": "EC50", "setting": "[6]; CAPAN-1, Capan1 cell line, read-out: Pancreatic cancer, EC50 Capan1", "value": 1900, "unit": "nM"}, {"measurement": "EC50", "setting": "[6]; Capan-2, Capan2 cell line, read-out: Pancreatic cancer, EC50 Capan2", "value": 1280, "unit": "nM"}, {"measurement": "EC50", "setting": "[6]; MIA PaCa-2 cell line, read-out: Pancreatic cancer, EC50 MIA PaCa-2", "value": 331, "unit": "nM"}, {"measurement": "EC50", "setting": "[6]; PANC 05.04 cell line, read-out: Pancreatic cancer, EC50 PANC 05.04", "value": 1170, "unit": "nM"}, {"measurement": "EC50", "setting": "[6]; PANC-1 cell line, read-out: Pancreatic cancer, EC50 PANC-1", "value": 3850, "unit": "nM"}, {"measurement": "EC50", "setting": "[6]; UPAFII cell line, read-out: Pancreatic cancer, EC50 UPAFII", "value": 397, "unit": "nM"}, {"measurement": "EC50", "setting": "[7]; DU-145, read-out: Prostate cancer EC50 Du-145", "value": 1190, "unit": "nM"}, {"measurement": "EC50", "setting": "[7]; PC-3, PC3 cell line, inhibition of cancer cell proliferation, read-out: Prostate cancer EC50 PC3", "value": 831, "unit": "nM"}, {"measurement": "EC50", "setting": "[7]; 22Rv1 cell line, inhibition of cancer cell proliferation, read-out: Prostate cancer EC50 22Rv1", "value": 360, "unit": "nM"}, {"measurement": "EC50", "setting": "[7]; LNCap clone FGC cell line, inhibition of cancer cell proliferation, read-out: Prostate cancer EC50 LNCap clone FGC", "value": 4240, "unit": "nM"}, {"measurement": "EC50", "setting": "[7]; VCaP (Sigma) cell line, inhibition of cancer cell proliferation, read-out: Prostate cancer EC50 VCaP (Sigma)", "value": 3470, "unit": "nM"}, {"measurement": "EC50", "setting": "CLK3", "value": 12.8, "unit": "nM"}]}
